The values that follow come from PubChem BioAssay (NCI).

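Assay format: 96-well plates, 48-hour exposure. At the TGI there is no net growth.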

Test systems include MOLT-4 leukemia; SN12C renal; TK-10 renal; RPMI-8226 leukemia; EKVX NSCLC; ACHN renal; NCI-H522 lung; HCC-2998 colon; CAKI-1 renal; COLO 205 colon.
Assay in all cases: NCI anticancer screen, dose series, 48 h

Consider `CC(O)=NC(Cc1ccc2ccccc2c1)C(O)=NC(Cc1ccc(Cl)cc1)C(O)=NC(Cc1c[nH]c2ccccc12)C(O)=NC(CO)C(O)=NC(Cc1ccc(O)cc1)C(O)=NC(CCCN=C(N)N)C(O)=NC(CC(C)C)C(O)=NC(CCCN=C(N)N)C(=O)N1CCCC1C(O)=NC(C)C(=N)O` (stereo unspecified), for which the TGI with MOLT-4 leukemia, in the assay with SN12C renal, in the assay with TK-10 renal, in the assay with RPMI-8226 leukemia, in the assay with EKVX NSCLC and in the assay with ACHN renal was more than 100 µM throughout. For the same compound, the TGI is 93 µM in the assay on NCI-H522 lung, more than 100 µM in the assay on HCC-2998 colon, more than 100 µM with CAKI-1 renal and more than 100 µM with COLO 205 colon.

Consider `CCOC(=O)[C@H]1C[C@]23CN(C(=O)OC(C)(C)C)CC[C@H]2CCC2(SCCCS2)[C@@H]3N1C`, for which the TGI is more than 100 µM in the assay on MOLT-4 leukemia; 44.3 µM with SN12C renal; 81.2 µM in the assay with TK-10 renal; 54.4 µM in the assay on RPMI-8226 leukemia; 90.4 µM with EKVX NSCLC; more than 100 µM in the assay on ACHN renal. For the same compound, the TGI in the assay with NCI-H522 lung is more than 100 µM; with HCC-2998 colon it was 65.4 µM; in the assay on CAKI-1 renal, more than 100 µM; in the assay on COLO 205 colon it was more than 100 µM.

`COc1c2ccoc2c(S(=O)(=O)Nc2ccc(Cl)cc2)c2oc(C)cc(=O)c12`: the TGI with MOLT-4 leukemia, with SN12C renal, in the assay with RPMI-8226 leukemia, with EKVX NSCLC, in the assay with NCI-H522 lung and with HCC-2998 colon was more than 100 µM throughout. Besides, the TGI in the assay on CAKI-1 renal was more than 95.9 µM; in the assay with COLO 205 colon it was more than 100 µM.

Consider `OC1(c2ccc3ccccc3c2)c2ccc3ccccc3c2C2=NCCN21` (stereo unspecified), for which the TGI with MOLT-4 leukemia, in the assay with SN12C renal, with TK-10 renal, with RPMI-8226 leukemia, in the assay with EKVX NSCLC and in the assay on ACHN renal was more than 100 µM each time. Further, the TGI in the assay on HCC-2998 colon, in the assay with CAKI-1 renal and in the assay on COLO 205 colon was more than 100 µM each time.

For the compound `Cc1onc(-c2c(F)cccc2Cl)c1C(=O)N[C@@H]1C(=O)N2[C@@H]1SC(C)(C)[C@@H]2C(=O)O`, the TGI in the assay on SN12C renal, in the assay with TK-10 renal, in the assay with RPMI-8226 leukemia, with EKVX NSCLC, in the assay with ACHN renal and with NCI-H522 lung was more than 100 µM in each case. The TGI in the assay with CAKI-1 renal and with COLO 205 colon was more than 100 µM in each case.

Consider `ClCC1(CCl)COC1`, for which the TGI with MOLT-4 leukemia, in the assay with SN12C renal, with TK-10 renal, in the assay with ACHN renal, in the assay with NCI-H522 lung and in the assay with HCC-2998 colon was more than 100 µM in each case. The compound further yielded a TGI with COLO 205 colon of more than 100 µM.

For the compound `O=C(/N=C/c1c(O)c2ccccc2oc1=O)NC1CCCCC1`, the TGI with MOLT-4 leukemia, in the assay on SN12C renal, in the assay on TK-10 renal, in the assay on RPMI-8226 leukemia, in the assay on EKVX NSCLC and with ACHN renal was more than 100 µM each time. Further, the TGI in the assay with HCC-2998 colon and in the assay with COLO 205 colon was more than 100 µM throughout.

Turning to `COc1cc(NCc2ccc3n2-c2ccccc2OC3)cc(OC)c1OC`, the TGI in the assay on SN12C renal was 45.5 µM; in the assay with TK-10 renal, more than 100 µM; in the assay with RPMI-8226 leukemia, 26.9 µM; in the assay on EKVX NSCLC, 45.1 µM; in the assay on ACHN renal, more than 100 µM; with NCI-H522 lung it was 40.7 µM. The TGI in the assay with HCC-2998 colon is 51.6 µM; in the assay on CAKI-1 renal, 74.5 µM; with COLO 205 colon, 25.5 µM.

On to `CCCC(=O)OCC(O)CO` (stereo unspecified), for which the TGI with MOLT-4 leukemia, in the assay with SN12C renal, in the assay with TK-10 renal, with RPMI-8226 leukemia, with ACHN renal and with NCI-H522 lung was more than 5000 µM in each case. The TGI in the assay with CAKI-1 renal and in the assay on COLO 205 colon was more than 5000 µM in each case.

For `CCOc1ccc2c(c1)NC(=O)C(C1OC(c3ccccc3)=CC1=O)S2` (stereo unspecified), the TGI in the assay with SN12C renal was 77.9 µM; with TK-10 renal it was more than 100 µM; in the assay with RPMI-8226 leukemia, 30.5 µM; with EKVX NSCLC it was 62.3 µM; in the assay with ACHN renal it was more than 100 µM; in the assay with NCI-H522 lung, 25.7 µM. Also, the TGI with HCC-2998 colon is 37.7 µM; in the assay with CAKI-1 renal, more than 100 µM; in the assay with COLO 205 colon, 28.1 µM.

On to `CO[C@]12C[C@H](CNC(=O)c3cc(Br)c(Br)[nH]3)O[C@H]1NC(=O)N2`, for which the TGI with MOLT-4 leukemia, in the assay with SN12C renal, in the assay with TK-10 renal, in the assay with RPMI-8226 leukemia, in the assay with EKVX NSCLC and in the assay on ACHN renal was more than 100 µM throughout. In addition, the TGI in the assay with NCI-H522 lung, with HCC-2998 colon, in the assay on CAKI-1 renal and in the assay with COLO 205 colon was more than 100 µM each time.

Consider `CC[N+](CC)(CC)/C(=N/S(=O)(=O)c1cc(C)c(Cl)cc1S)[N-]S(=O)(=O)c1ccc(Cl)cc1`, for which the TGI in the assay on MOLT-4 leukemia, with TK-10 renal, in the assay with RPMI-8226 leukemia, in the assay with EKVX NSCLC, in the assay with ACHN renal and with NCI-H522 lung was more than 100 µM in each case. The TGI in the assay with HCC-2998 colon and in the assay with CAKI-1 renal was more than 100 µM throughout.

Take `Cc1ccc(S(=O)(=O)NCCSS(=O)(=O)c2ccc(C)cc2)cc1`: the TGI was more than 100 µM in the assay on MOLT-4 leukemia; 86.3 µM in the assay on SN12C renal; more than 100 µM in the assay with TK-10 renal; more than 100 µM with ACHN renal; 38.5 µM in the assay on NCI-H522 lung; more than 100 µM in the assay on HCC-2998 colon. The same compound registered a TGI in the assay on COLO 205 colon of more than 100 µM.

`CCCc1ccc(OCC(=O)N/N=C/c2c(-c3ccccc3)[nH]c3ccccc23)cc1`: the TGI is 30.4 µM with MOLT-4 leukemia; 32.1 µM with SN12C renal; 63.8 µM in the assay on TK-10 renal; 30.7 µM with RPMI-8226 leukemia; 92.8 µM in the assay on EKVX NSCLC; more than 100 µM in the assay with ACHN renal. The TGI with NCI-H522 lung was 82 µM; in the assay on HCC-2998 colon, 14.1 µM; in the assay with CAKI-1 renal, more than 100 µM; with COLO 205 colon it was 14.3 µM.
